Data on two molecules can be found in EPA's ToxValDB 9.5 (doi:10.2903/j.efsa.2017.4912).

In brackets after ≈: the same amount, converted by molar mass.

One data set concerns Rattus norvegicus. As to conditions: for NOAEL: body weight.
The test system of another data set is Anas platyrhynchos. As to conditions: reproductive; duration: 21 weeks; M; reproduction.
In a further data set the test system is Apis mellifera. As to conditions: acute, duration: 48 hours, mortality.
For another data set, the system named is Cyprinodon variegatus. As to conditions: chronic/long-term; duration: 28 days; other.
For the next data set, the system named is Folsomia candida. As to conditions: chronic/long-term; duration: 28 days.
The next data set deals with Oncorhynchus mykiss. As to conditions: acute; duration: 96 hours; mortality.
A further data set concerns Tagia sp. As to conditions: chronic/long-term; duration: 56 days.
For a further data set, the system named is Typhlodromus pyri. Briefly: LR50; higher = less toxic. As to conditions: not reported; duration: 7 days; mortality.

Regarding `COC(=O)c1ccccc1S(=O)(=O)NC(=O)Nc1nc(C)nc(OC)n1` [Metsulfuron-methyl], the NOAEL with Oryctolagus sp. (developmental, development) was found to be 25 mg/kg-day; in the data set with Rattus norvegicus (chronic, duration: 2 years), 22.4 mg/kg-day.

In the case of `COC(=O)c1ccccc1S(=O)(=O)NC(=O)N(C)c1nc(C)nc(OC)n1` [Tribenuron-methyl], the NOEL with Anas platyrhynchos was 21 mg/kg-day; with Colinus virginianus (reproduction developmental, duration: 23 weeks, reproduction), 21 mg/kg-day. Also, the LD50 in the data set on Apis mellifera (dermal) is greater than 98.4 µg/piece; in the data set with Apis mellifera (oral, unspecified) it was greater than 9.1 µg/piece; with Colinus virginianus (acute, oral, mortality) it was greater than 2250 mg/kg-day; in the data set with Rattus norvegicus (acute, oral, mortality), greater than 5000 mg/kg-day. Besides, the NOEC amounted to 11.9 mg/L with Cyprinodon variegatus, 30.8 mg/kg with Folsomia candida and 3.2 mg/kg in the data set with Tagia sp.. Also, the LC50 in the data set with Oncorhynchus mykiss was 738 µg/mL (≈ 1870 µM). The NOAEL with Oryctolagus sp. (reproduction developmental, mortality) was 20 mg/kg-day; with Rattus norvegicus (chronic, duration: 2 years), 1 mg/kg-day; in the data set on Rattus norvegicus (reproduction developmental) it was 2 mg/kg-day; in the data set on Rattus norvegicus (subchronic, duration: 90 days, oral) it was 7 mg/kg-day. In the data set on Typhlodromus pyri, this molecule returned an LR50 greater than 29.6 g/ha.

By NOAEL is commonly meant the highest tested level that showed no adverse finding. The term LC50 denotes the concentration lethal to half of the exposed cells or organisms.
